Laboratory results reported in US5919635A (ZymoGenetics, Inc., priority 1995, dated 1999).
Blank lines part the entries; values can stand above or below the molecule they belong to. No end group written: not given here.

How the values were obtained:
[1] = system: CRE-luciferase (KZ6) in BHK570 cells; test: Luciferase assay response to forskolin of KZ6-transfected BHK570 clone BHK/KZ6-19-46; format: cell-based
Description: Plasmid KZ6 was transfected into BHK570 cells (deposited with the American Type Culture Collection under Accession No. 10314) using the calcium phosphate precipitation method essentially as described by Graham and Van der Eb (Virology 52:456, 1973, which is incorporated by reference herein in its entirety). The transfected cells were grown in growth medium (Dulbecco's modified Eagle's medium (DMEM) containing 10% fetal calf serum, 1× PSN antibiotic mix (GIBCO-BRL), and 2.0 mM L-glutamine). After a few days in non-selective growth medium, the growth medium was replaced with G418 selection medium (growth medium containing 500 μg/ml of G418). The cells were then allowed to grow to confluency after which they are trypsinized and plated at limiting dilution into the wells of 96-well plates. The cells were grown for one to two weeks in G418 selection media. Clones from wells containing single colonies were assayed for the ability to respond to forskolin in the luciferase assay described below. Forskolin elevates the cellular cAMP level and thus the associated cAMP-dependent biological response pathways in a receptor-independent manner.
(§1) Following induction, the medium was removed, and the wells were washed once with 200 μl/well PBS. […] The fold induction of luciferase for each agonist was calculated as follows: [formula]

isolated human islets = test: Insulin secretory function of isolated human pancreatic islets after perfusion; format: cell-based
Description: Islet cells were isolated from human pancreata obtained from organ transplant donors for whom a matched recipient was not available. After in situ perfusion with cold UW solution (Du Pont, Boston, Mass.), each pancreas was carefully excised, the pancreatic duct cannulated, and 4 mg/ml collagenase solution (Type V, Sigma, St. Louis, Mo.) infused at a constant rate, first at 4° C. and then 39° C. The gland was teased apart, and liberated fragments were washed by centrifugation, triturated through needles of decreasing caliber, and purified by discontinuous Ficoll density centrifugation (Warnock, Diabetes 35(Suppl. 1):136-139, 1989). Material harvested from the upper interfaces was pooled and counted after a determination of islet purity by dithiazone staining. Islets used in library construction were greater than 65% pure, while islets used in Northern blots were greater than 40% pure. The average islet diameter was 175 μm.

rat glucagon receptor = molecular target: T1, rat glucagon receptor (Rattus norvegicus, UniProt P30082); test: CRE-luciferase induction in pLJ4 transfectant clone KZ6/rGR-DHFR-2; format: cell-based; settings: listed 200 nM GLP, 20 nM VIP, 100 nM CT, 4 hours at 37° C.
T1 construct: pLJ4 contained an approximately 2 kb insert encoding a 485 amino acid protein; expressed in transfected cells; host or cells: BHK/KZ6-19-46 (BHK570 with CRE-luciferase plasmid KZ6), clone KZ6/rGR-DHFR-2
Description: D. Luciferase and Adenylate Cyclase Activity Assays on Whole Cells
BHK/KZ6-19-46 cells were co-transfected with pLJ4 and pLJ1 or with pZCEP and pLJ1 (pZCEP transfectants were used as negative controls) as described above using calcium phosphate-mediated transfection. Transfectants were selected in 250 nM methotrexate as described previously.
Transfectants were assayed in triplicate for the induction of the CRE-luciferase response by selected agonists. Six random pLJ4 transfectants were assayed, and random pZCEP transfectants were assayed (negative controls). Microtiter assay plates were set up such that each well contained 2×10^4 cells in 100 μl of selection medium, and the cells were grown overnight. The agonists were prepared in selection medium, at the 2× final assay concentration listed:
Induction was initiated by the addition of 100 μl for each 2× solution in triplicate sample wells. Uninduced levels were determined in triplicate wells to which 100 μl of DMEM containing 10% fetal calf serum was added. The plates were incubated for four hours at 37° C., 5% CO2 to allow induction of luciferase production.
as §1

[2] = molecular target: Rat Glucagon Receptor (pLJ4) in COS-7 cells (Rattus norvegicus, UniProt P30082); test: cAMP accumulation (Amersham SPA kit) in COS-7 cells transfected with pLJ4; format: cell-based; settings: 100 nM to 1000 nM; pLJ4 transfectants
[3] = molecular target: T2, cloned receptor (rat glucagon receptor, pLJ4) (Rattus norvegicus, UniProt P30082); test: Competition binding / Scatchard analysis with ^125 I-glucagon on membranes of pLJ4 BHK transfectants; settings: micromolar amounts (Table 7: 1 μM glucagon and des-His^1 [Glu^9]glucagon amide)
T2 construct: pLJ4 contained an approximately 2 kb insert encoding a 485 amino acid protein; expressed in transfected cells; host or cells: BHK570
Description: Membranes from the pLJ4 BHK transfectants were compared with rat liver membrane preparations for the ability to bind ^125 I-glucagon. Membranes were prepared essentially described by Rodbell et al. (J. Biol Chem. 246:1861-1871, 1971, which is incorporated by reference herein in its entirety). Two batches of liver membranes were each prepared from approximately 80 gm of liver from 12 to 16 decapitated young female rats. The livers were removed quickly and placed into an iced beaker. The livers were separated into ten-gram portions. The portions were minced with scissors, and connective tissue was removed during the mincing procedure. The portions were separately homogenized in a Dounce homogenizer. To each portion, 25 ml of Medium (Table 2) was added to the minced tissue in the homogenizer, and the tissue was homogenized in an ice bucket with eight vigorous strokes of the loose pestle. After homogenization, the homogenates were pooled into 450 ml of cold Medium (Table 2). The pooled homogenates were stirred for 3 minutes and filtered through two layers of cheesecloth followed by filtering through four layers of cheesecloth. The homogenates were then centrifuged for 30 minutes at 1500×g at 4° C. The supernatants were discarded, and the pellets were pooled into a clean Dounce homogenizer. The pellets were resuspended with three gentle strokes of the loose pestle. The resuspended pellets were decanted into a 250 ml graduate containing 62 ml of 69% Sucrose Solution (Table 2). Distilled water was added to a final volume of 110 ml, and the mixture was thoroughly mixed and kept cold. The concentration of the solution was adjusted to 44.0%+/-0.1% using 69% sucrose or water as measured by a refractometer (Bausch & Lomb, Rochester, N.Y.). […]
To each tube 100 μl of 2× binding buffer; 20 μl of ^125 I-glucagon (Amersham); 20 μl of 1 mM NaHCO3; 20 μl 10 mM HOAc, 0.5% BSA (Novo Nordisk N/A, Bagsvaerd, Denmark); and 40 μl of distilled water were added. […] The supernatants from each sample were aspirated, and the pellets were counted. […]

[4] = molecular target: Human Glucagon Receptor (pLJ6') (Homo sapiens, UniProt P47871); test: cAMP accumulation in pLJ6'-transfected cells; format: cell-based
Description: The related peptides secretin, VIP, PTH, GLP and calcitonin were each added to transfectants at concentrations of 100 nM to 1000 nM and assayed for their ability to induce cAMP levels.
Transfected cells were selected in the presence of G418 until single colonies were visible. Single colonies were cloned using cloning cylinders.
The PLJ6'-transfected cells were assayed for cAMP accumulation essentially as described in Example 8.C.

Chain of Rat Glucagon Receptor (pLJ4) in COS-7 cells (P30082 27-485): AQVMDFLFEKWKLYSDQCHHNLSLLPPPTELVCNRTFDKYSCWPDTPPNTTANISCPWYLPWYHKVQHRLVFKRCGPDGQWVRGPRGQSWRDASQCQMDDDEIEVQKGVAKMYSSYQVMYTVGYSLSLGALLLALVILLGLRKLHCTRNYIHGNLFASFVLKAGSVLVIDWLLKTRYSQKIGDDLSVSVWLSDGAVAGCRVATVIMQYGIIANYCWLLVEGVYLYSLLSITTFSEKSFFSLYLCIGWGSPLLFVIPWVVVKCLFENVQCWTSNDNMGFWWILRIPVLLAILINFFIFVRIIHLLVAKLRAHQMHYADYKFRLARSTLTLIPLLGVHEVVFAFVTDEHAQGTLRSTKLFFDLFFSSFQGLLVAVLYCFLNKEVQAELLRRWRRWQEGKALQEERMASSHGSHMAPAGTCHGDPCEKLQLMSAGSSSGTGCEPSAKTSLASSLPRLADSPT
Chain of Human Glucagon Receptor (pLJ6') (P47871 26-477): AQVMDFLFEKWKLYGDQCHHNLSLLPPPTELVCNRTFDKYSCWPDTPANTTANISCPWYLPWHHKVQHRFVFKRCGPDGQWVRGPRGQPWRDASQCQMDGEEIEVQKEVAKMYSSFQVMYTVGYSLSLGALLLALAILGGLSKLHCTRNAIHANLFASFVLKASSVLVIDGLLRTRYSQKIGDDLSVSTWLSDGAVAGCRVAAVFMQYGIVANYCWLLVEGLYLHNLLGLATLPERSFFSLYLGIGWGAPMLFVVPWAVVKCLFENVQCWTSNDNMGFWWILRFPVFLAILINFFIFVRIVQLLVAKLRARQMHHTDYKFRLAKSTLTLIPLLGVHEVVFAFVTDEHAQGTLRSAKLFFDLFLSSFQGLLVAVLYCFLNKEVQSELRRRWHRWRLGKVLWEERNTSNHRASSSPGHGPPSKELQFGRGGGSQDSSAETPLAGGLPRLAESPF
T2 sequence (P30082 27-485): as the sequence (P30082 27-485) above
T1 sequence (P30082 27-485): as above

Molecule: C=C[C@@]1(C)CC(=O)[C@]2(O)[C@@]3(C)[C@@H](O)CCC(C)(C)[C@@H]3[C@H](O)[C@H](OC(C)=O)[C@@]2(C)O1 [forskolin]
ability to respond to forskolin in the luciferase assay [1]: capable of responding to forskolin

Molecule: O=C[C@H](O)[C@@H](O)[C@H](O)[C@H](O)CO [glucose]
insulin secretory function (in words) (isolated human islets): both first and second phase insulin secretory function

Molecule: CC(C)Cn1c(=O)n(C)c(=O)c2[nH]cnc21 [isobutylmethylxanthine (IBMX), isobutylmethylxanthine]
insulin secretory function (in words) (isolated human islets): both first and second phase insulin secretory function

induction of luciferase (in words) (rat glucagon receptor): not induced
Molecule: calcitonin
ability to induce cAMP levels [2]: none of the related peptides were capable of inducing significant increases in cAMP levels

Molecule: des-His^1 [Glu^9 ]glucagon amide
ability to compete for ^125 I-glucagon binding [3]: able to compete

cAMP accumulation (in words) [4]: no increased cAMP accumulation
Molecule: secretin: porcine secretin (Sigma) (HSDGTFTSELSRLRDSARLQRLLQGLV; ends and bridges not checked; UniProt P63298 33-59, looked up)
ability to induce cAMP levels [2]: none of the related peptides were capable of inducing significant increases in cAMP levels

B1: PTH: bovine parathyroid hormone (PTH) (Sigma) (peptide, UniProt P01268 32-115, looked up)
Parathyroid hormone: AVSEIQFMHNLGKHLSSMERVEWLRKKLQDVHNFVALGASIAYRDGSSQRPRKKEDNVLVESHQKSLGEADKADVDVLIKAKPQ
modifications: Parathyroid hormone
ability to induce cAMP levels [2]: none of the related peptides were capable of inducing significant increases in cAMP levels
